Laboratory results: ChEMBL document CHEMBL1926545, “The 2,11-cyclized cembranoids: cladiellins, asbestinins, and briarellins (period 1998-2010)” (J Nat Prod, 2011)
Activity calls are given as the source filed them. The rule behind the calls is not given here.

Key:
MDA-MB-231 = experiment: Cytotoxicity against human MDA-MB-231 cells; assay type: functional, cell-based
HepG2 = experiment: Cytotoxicity against human HepG2 cells; assay type: functional, cell-based
MCF7 = experiment: Cytotoxicity against human MCF7 cells; assay type: functional, cell-based
Ca9-22 = experiment: Cytotoxicity against human Ca9-22 cells; assay type: functional, cell-based
A549 = experiment: Cytotoxicity against human A549 cells; assay type: functional, cell-based
[1] = Cytotoxicity against human Hep3B cells; assay type: functional, cell-based, Hep 3B2
RAW264.7 [2] = experiment: Antiinflammatory activity in […] RAW264.7 cells assessed as LPS-induced COX-2 expression at 10 uM; assay type: functional
RAW264.7 [3] = experiment: Antiinflammatory activity in […] RAW264.7 cells assessed as LPS-induced iNOS expression at 10 uM; assay type: functional
[4] = Cytostatic activity against human NSCLC-N6 cells; assay type: functional, cell-based
L1210 = experiment: Cytotoxicity against mouse L1210 cells; assay type: functional, cell-based
[5] = Homo sapiens, MDA-MB-231, read-out: IC50
[6] = Homo sapiens, HepG2, read-out: IC50
[7] = Homo sapiens, MCF7, read-out: IC50
[8] = Homo sapiens, Ca9-22, read-out: IC50
[9] = Homo sapiens, A549, read-out: IC50
[10] = Homo sapiens, Hep3B, read-out: IC50

| SMILES | IC50 (MDA-MB-231; mda-mb-231) | IC50 (HepG2; hepg2) | IC50 (MCF7; mcf7) | IC50 (Ca9-22; ca9-22) | IC50 (A549; a549) | IC50 ([1]; hep 3b2) | further results |
| --- | --- | --- | --- | --- | --- | --- | --- |
| CCCC(=O)O[C@]1(C)CC[C@H](O)[C@@H](C)C[C@H]2O[C@@H]1[C@@H]1[C@@H](C(C)C)[C@H](O)C[C@@](C)(OC(C)=O)[C@@H]12 [KLYSIMPLEXIN A] | Not Active | Not Active | Not Active | Not Active | Not Active | Not Active | – |
| C=C1C[C@H]2O[C@H]([C@@H]3[C@@H](C(C)C)[C@H](O)C[C@@](C)(OC(C)=O)[C@@H]32)[C@](C)(OC(=O)CCC)CCC1=O [KLYSIMPLEXIN B] | – | – | – | – | – | – | IC50 (MDA-MB-231; [5]): 15 µM; IC50 (HepG2; [6]): 6.4 µM; IC50 (MCF7; [7]): 6.5 µM; IC50 (Ca9-22; [8]): 3.9 µM; IC50 (A549; [9]): 4.3 µM; IC50 [1, 10]: 7.8 µM |
| C=C1C[C@H]2O[C@H]([C@@H]3[C@@H](C(C)C)[C@H](O)C[C@@](C)(OC(C)=O)[C@@H]32)[C@](C)(OC(=O)CCC)CC[C@@H]1O [KLYSIMPLEXIN C] | Not Active | Not Active | Not Active | Not Active | Not Active | Not Active | – |
| C=C1C[C@H]2O[C@H]([C@@H]3[C@@H](C(C)C)[C@H](O)C[C@@](C)(OC(C)=O)[C@@H]32)[C@](C)(OC(=O)CCC)CC[C@@H]1OO [KLYSIMPLEXIN D] | Not Active | Not Active | Not Active | Not Active | Not Active | Not Active | – |
| C=C1C[C@H]2O[C@H]([C@@H]3[C@@H](C(C)C)[C@H](O)C[C@@](C)(OC(C)=O)[C@@H]32)[C@](C)(OC(C)=O)CC[C@@H]1O [KLYSIMPLEXIN E] | Not Active | Not Active | Not Active | Not Active | Not Active | Not Active | – |
| CCCC(=O)O[C@]1(C)CC[C@H](O)[C@@](C)(O)C[C@H]2O[C@@H]1[C@@H]1[C@@H](C(C)C)[C@H](O)C[C@@](C)(OC(C)=O)[C@@H]12 [KLYSIMPLEXIN F] | Not Active | Not Active | Not Active | Not Active | Not Active | Not Active | – |
| CC(=O)O[C@]1(C)CC[C@H](C(C)C)[C@@H]2[C@H]1[C@H]1C[C@](C)(O)[C@@H](O)CC[C@@](C)(OC(C)=O)[C@@H]2O1 [KLYSIMPLEXIN G] | Not Active | Not Active | Not Active | Not Active | Not Active | Not Active | – |
| CCCC(=O)O[C@H]1[C@H](C(C)C)[C@@H]2[C@@H]([C@H]3/C=C(/C)[C@@H](O)CC[C@@](C)(OC(=O)CCC)[C@@H]2O3)[C@](C)(O)[C@@H]1OC(C)=O [KLYSIMPLEXIN H] | – | – | – | – | – | – | IC50 (MDA-MB-231; [5]): 8 µM; IC50 (HepG2; [6]): 10 µM; IC50 (MCF7; [7]): 10 µM; IC50 (Ca9-22; [8]): 11 µM; IC50 (A549; [9]): 5.1 µM; IC50 [1, 10]: 13 µM |
| CCCC(=O)O[C@]1(C)CCC[C@@](C)([S+](C)[O-])C[C@H]2O[C@@H]1[C@H]1[C@@H]2[C@](C)(OC(C)=O)CC[C@@H]1C(C)C (stereo partly drawn) [KLYSIMPLEXIN SULFOXIDE A] | – | – | – | – | – | – | Activity (RAW264.7 [2]): inactive; Activity (RAW264.7 [3]): 8.8% |
| CCCC(=O)O[C@H]1[C@H](C(C)C)[C@@H]2[C@@H]([C@H]3C[C@](C)([S+](C)[O-])CCC[C@@](C)(OC(=O)CCC)[C@@H]2O3)[C@](C)(O)[C@@H]1OC(C)=O (stereo partly drawn) [KLYSIMPLEXIN SULFOXIDE B] | – | – | – | – | – | – | Activity (RAW264.7 [2]): inactive; Activity (RAW264.7 [3]): 18% |
| C=C1C[C@H]2O[C@H]([C@@H]3[C@@H](C(C)C)[C@H](OC(=O)CC[S+](C)[O-])[C@@H](OC(C)=O)[C@@](C)(O)[C@@H]32)[C@](C)(OC(=O)CCC)CC[C@@H]1O (stereo partly drawn) [KLYSIMPLEXIN SULFOXIDE C] | – | – | – | – | – | – | Activity (RAW264.7 [2]): 7.2%; Activity (RAW264.7 [3]): 11% |
| C=C1C[C@@H]2O[C@@H]([C@@H]3[C@H]2[C@@](C)(OC(C)=O)[C@H](OC(C)=O)C[C@H]3C(C)C)[C@@](C)(OC(C)=O)CC[C@H]1O [LABIATIN C] | – | – | – | – | – | – | IC50 [4]: 16 µM |
| C=C1C[C@H]2O[C@H]([C@H]3[C@@H]2[C@](C)(OC(C)=O)[C@@H](OC(C)=O)C[C@@H]3C(C)C)[C@](C)(OC(C)=O)CC[C@@H]1O [LABIATIN E] | – | – | – | – | – | – | IC50 [4]: 73 µM |
| C=C1CC[C@H](C(C)C)[C@@H]2[C@H]1[C@H]1C[C@](C)(O)[C@@H](O)CC[C@@](C)(O)[C@@H]2O1 [SCLEROPHYTIN A] | – | – | – | – | – | – | IC50 (L1210): 0.003 µM; IC50 (A549; [9]): 57 µM |
